Source: patent publication US9138466B2, “Factor H for transplantation” (Baxter International Inc., priority 2013, dated 2015)
Where “and” joins values, the source holds several entries; their conditions need not be identical. Equal values may be shown once. Marks after values point to notes of the source that are not given here.

Columns and labels:
Format in all cases: in vivo
[1] = test system: collagen antibody-induced arthritis in Balb C mice; assay: Mouse CAIA, clinical score (Example 4); design: key to Mean Maximum Clinical Score: scored 0 to 60, sum of 4 limbs
[2] = Mouse CAIA, body weight and tolerability (Example 4)
Description: Balb C mice (n=10 per cohort) were used to determine the efficacy of Factor H (FH) during transplant rejection. The mice were treated with ArthritoMAb (anti-collagen) antibody cocktail (2 mg, i.v.) on day 1, followed 7 days later with an injection of LPS (50 μg, i.p.). On day 8, hind paw volumes were measured for each animal and distributed to various treatment groups.
Hind paw volumes were measured on day 8, 11, 12, 13, 15, 19 and 22 (endpoint). The age at start date was 7 to 9 weeks. Body weights were measured bi-weekly to the endpoint (Table 4). At the endpoint, tissue samples were processed for histology and submitted to a pathologist for independent analysis. Sampling 1 was performed at the endpoint. The hind limbs were preserved in 10% formalin. Sampling 2 was performed at the endpoint for group 4 animals. Blood was collected by terminal cardiac puncture. The blood was processed for anti-coagulant. The kidneys were additionally preserved in formalin and followed with 70% EtOH. Samples were scored for inflammation, pannus (granulation tissue), cartilage damage, bone resorption and exostosis (Table 5).

[3] = test system: collagen antibody-induced arthritis in Balb C mice; assay: Mouse CAIA, hind paw volume / footpad swelling (Example 4); design: Mean Disease Burden / Hind Limb Volume, Mean Diff. / Total Disease, Mean Diff.: unit not given here; details: for Total Footpad Thickness, Day of Study 8: day 8; for Total Footpad Thickness, Day of Study 11: day 11; for Total Footpad Thickness, Day of Study 12: day 12; for Total Footpad Thickness, Day of Study 13: day 13; for Total Footpad Thickness, Day of Study 15: day 15; for Total Footpad Thickness, Day of Study 19: day 19; for Total Footpad Thickness, Day of Study 22: day 22; for % Disease Suppression: footpad thickness AUC vs vehicle; for Total Disease Burden (AUC): footpad thickness days 8-22, in mL·day
[4] = test system: collagen antibody-induced arthritis in Balb C mice; assay: Mouse CAIA, histopathology of hind limbs (ankle, H & E) (Example 4); details: for Composite Histopathaligy Score / Score From H & E, Bone Resorption / Score From H & E, Cartilage Damage / Score From H & E, Inflammation / Score From H & E, Pannus / Score From H & E, Periosteal Exostotic Changes: ankle; for Score From H & E, Bone Resorption / Score From H & E, Cartilage Damage / Score From H & E, Inflammation / Score From H & E, Pannus / Score From H & E, Periosteal Exostotic Changes: score 0 = normal to 5 = severe
[5] = Dunn's Multiple Comparison Test, G1 vehicle vs treatment
[6] = Dunnett's Multiple Comparison Test, G1 vehicle vs treatment
[7] = Dunnett's Multiple Comparison Test, vehicle vs treatment
[8] = individual animal, listed as Group 3

## Etanercept
[1]; [5]
  Clinical Score, Difference in rank sum: 3.55
  Clinical Score, Significant? P < 0.05?: No
[1]; day 8, group mean n=10
  Clinical score, Mean: 5.50
[1]; day 8, individual animal
  Clinical score: 0 (5×) and 15 and 10 (4×)
[1]; day 11, group mean n=10
  Clinical score, Mean: 19.60
[1]; day 11, individual animal
  Clinical score: 12 (2×) and 34 and 28 and 4 and 15 and 43 and 11 and 10 and 27
[1]; day 12, group mean n=10
  Clinical score, Mean: 37.10
[1]; day 12, individual animal
  Clinical score: 32 and 50 (2×) and 45 and 27 and 35 and 26 and 20 and 34 and 52
[1]; day 13, group mean n=10
  Clinical score, Mean: 35.50
[1]; day 13, individual animal
  Clinical score: 32 and 50 and 45 (2×) and 21 and 35 and 30 and 15 and 34 and 48
[1]; day 15, group mean n=10
  Clinical score, Mean: 31.50
[1]; day 15, individual animal
  Clinical score: 32 and 49 and 21 and 48 and 25 and 45 and 15 and 10 and 24 and 46
[1]; day 19, group mean n=10
  Clinical score, Mean: 28.40
[1]; day 19, individual animal
  Clinical score: 32 and 48 and 34 and 25 and 5 and 45 and 20 and 10 and 26 and 37
[1]; day 22, group mean n=10
  Clinical score, Mean: 25.70
[1]; day 22, individual animal
  Clinical score: 32 and 41 and 34 and 18 (3×) and 40 and 10 and 23 and 26
[1]; group line 'Mean', day of study
  Day (of Max Clin Score), Mean: 12.00
[1]; group mean n=10
  Max Clin Score, Mean: 38.60
[1]; individual animal
  Max Clin Score: 32 and 50 (2×) and 45 and 48 and 35 and 30 and 20 and 34 and 52
[1]; individual animal, day of study
  Day (of Max Clin Score): 12 (8×) and 22 and 16
[1]; scored from 0 to 60, sum of 4 limbs, vehicle 45.4
  Mean Maximum Clinical Score: 39.6^ns
[2]; day 1, group mean n=10, before dosing start (day 8)
  Body Weight, Wt (g), Mean: 17.3 g
[2]; day 1, individual animal, before dosing start (day 8)
  Body Weight, Wt: 16.7 g and 17.3 g and 16.5 g (2×) and 18 g (2×) and 17.7 g and 17.5 g and 16.8 g and 17.6 g
[2]; day 5, group mean n=10, before dosing start (day 8)
  Body Weight, Wt (g), Mean: 17.7 g
[2]; day 5, individual animal, before dosing start (day 8)
  Body Weight, Wt: 18.5 g (2×) and 17.4 g (2×) and 18.2 g and 16.6 g and 17.3 g and 17 g and 18.1 g and 18.3 g
[2]; day 8, group mean n=10
  Body Weight, Wt (g), Mean: 16.3 g
[2]; day 8, individual animal
  Body Weight, Wt: 16.5 g and 16.4 g (2×) and 16.1 g (2×) and 15.7 g (2×) and 16.2 g and 16.6 g and 17.1 g
[2]; day 12, group mean n=10
  Body Weight, Wt (g), Mean: 17 g
[2]; day 12, individual animal
  Body Weight, Wt: 16.6 g and 16.7 g (2×) and 17.8 g (2×) and 17.9 g and 15.5 g and 17.1 g and 17.7 g
[2]; day 15, group mean n=10
  Body Weight, Wt (g), Mean: 17.4 g
[2]; day 15, individual animal
  Body Weight, Wt: 17.1 g and 17.8 g and 17 g and 17.7 g and 16.6 g and 18 g (2×) and 17.9 g and 16.2 g and 17.6 g
[2]; day 19, group mean n=10
  Body Weight, Wt (g), Mean: 17.9 g
[2]; day 19, individual animal
  Body Weight, Wt: 18.3 g (2×) and 17.7 g and 18.4 g and 14.6 g and 18.8 g and 18.6 g (2×) and 16.5 g and 19.1 g
[2]; day 22, group mean n=10
  Body Weight, Wt (g), Mean: 18.1 g
[2]; day 22, individual animal
  Body Weight, Wt: 18.8 g and 18.3 g and 17.8 g and 18.7 g and 15.8 g and 18 g and 18.2 g and 17.3 g and 18.6 g and 19.6 g
[2]; lowest group mean body weight as % change from day 1, vehicle −8.0%
  Mean Body Weigh at Nadir: −5.7%
[3]; AUC of combined footpad volume over baseline, days 8 to 22, group mean, vehicle 1.93
  Mean Disease Burden: 0.74**
[3]; [6]
  Total Disease, 95% CI of diff: 0.441 to 1.94
  Total Disease, Mean Diff.: 1.19
  Total Disease, Significant? P < 0.05?: Yes
  Total Disease, Summary: ** (**= P < 0.01)
  Total Disease, q: 3.9
[3]; [7]
  Hind Limb Volume, 95% CI of diff: 0.02587 to 0.1370
  Hind Limb Volume, Mean Diff.: 0.08143
  Hind Limb Volume, Significant? P < 0.05?: Yes
  Hind Limb Volume, Summary: ** (**= P < 0.01)
  Hind Limb Volume, q: 3.674
[3]; group mean, n 10
  Total Footpad Thickness, Day of Study 8: 0.35 mL
  Total Footpad Thickness, Day of Study 11: 0.44 mL
  Total Footpad Thickness, Day of Study 12: 0.44 mL
  Total Footpad Thickness, Day of Study 13: 0.42 mL
  Total Footpad Thickness, Day of Study 15: 0.38 mL
  Total Footpad Thickness, Day of Study 19: 0.42 mL
  Total Footpad Thickness, Day of Study 22: 0.38 mL
  % Disease Suppression: 61.66%
  Total Disease Burden (AUC): 0.74
[3]; individual animals (A# 1-10)
  Total Footpad Thickness, Day of Study 8: 0.41 mL and 0.4 mL and 0.38 mL and 0.37 mL and 0.35 mL and 0.34 mL and 0.32 mL and 0.31 mL and 0.3 mL (2×)
  Total Footpad Thickness, Day of Study 11: 0.49 mL and 0.44 mL (2×) and 0.37 mL and 0.38 mL and 0.39 mL and 0.4 mL (2×) and 0.45 mL and 0.41 mL
  Total Footpad Thickness, Day of Study 12: 0.58 mL and 0.44 mL and 0.35 mL and 0.42 mL and 0.48 mL and 0.49 mL and 0.45 mL and 0.39 mL (2×) and 0.4 mL
  Total Footpad Thickness, Day of Study 13: 0.58 mL and 0.41 mL (2×) and 0.36 mL and 0.33 mL and 0.49 mL and 0.39 mL and 0.35 mL and 0.43 mL and 0.4 mL
  Total Footpad Thickness, Day of Study 15: 0.45 mL and 0.48 mL and 0.34 mL and 0.37 mL and 0.43 mL and 0.41 mL and 0.33 mL (2×) and 0.32 mL and 0.3 mL
  Total Footpad Thickness, Day of Study 19: 0.61 mL and 0.43 mL and 0.4 mL and 0.47 mL (2×) and 0.32 mL and 0.42 mL and 0.35 mL and 0.33 mL and 0.38 mL
  Total Footpad Thickness, Day of Study 22: 0.55 mL and 0.41 mL (2×) and 0.34 mL (2×) and 0.39 mL and 0.36 mL (3×) and 0.32 mL
  % Disease Suppression: 16.3% and 74.3% and 109.8% and 83.9% and 52.3% and 49.7% and 69.4% and 70.2% and 29.0% and 63.7%
  Total Disease Burden (AUC): 1.62 and 0.56 and −0.19 and 0.35 and 0.92 and 0.97 and 0.59 and 0.58 and 1.37 and 0.70
[3]; mean combined foot pad volume, day 8 vs median day of maximal swelling, vehicle 0.21
  Maximum Δ Mean Volume: 0.13** ml
[3]; percent decrease in total disease burden relative to vehicle
  % Disease Suppression (vs Vehicle): 61.7%
[4]; [5]
  Cartilage, Difference in rank sum: −1.5
  Cartilage, Significant? P < 0.05?: No
  Composite, Difference in rank sum: 2.1
  Composite, Significant? P < 0.05?: No
  Exostosis, Difference in rank sum: 5.8
  Exostosis, Significant? P < 0.05?: No
  Inflammation, Difference in rank sum: 3.6
  Inflammation, Significant? P < 0.05?: No
  Pannus, Difference in rank sum: 0.3
  Pannus, Significant? P < 0.05?: No
[4]; group mean
  Composite Histopathaligy Score: 6.0 ± 2.1
  Score From H & E, Bone Resorption: 1.0 ± 0.4
  Score From H & E, Cartilage Damage: 0.7 ± 0.3
  Score From H & E, Inflammation: 1.5 ± 0.5
  Score From H & E, Pannus: 1.4 ± 0.5
  Score From H & E, Periosteal Exostotic Changes: 1.4 ± 0.8
[4]; [8]
  Score From H & E, Bone Resorption: 1 and 0 (6×) and 3 (3×)
  Score From H & E, Cartilage Damage: 1 (3×) and 0 (5×) and 2 (2×)
  Score From H & E, Inflammation: 1 (4×) and 3 (3×) and 0 (2×) and 2
  Score From H & E, Pannus: 1 and 0 (5×) and 4 (2×) and 2 (2×)
  Score From H & E, Periosteal Exostotic Changes: 4 and 0 (6×) and 1 and 3 (2×)
  Composite Histopathaligy Score: 11 (2×) and 0 (5×) and 16 and 15 and 1
[4]; histopathology summary, graded 1-5, vehicle 0.6 ± 0.3
  Bone Resorption: 1.0 ± 0.4^ns
[4]; histopathology summary, graded 1-5, vehicle 1.0 ± 0.3
  Pannus: 1.4 ± 0.5^ns
[4]; histopathology summary, graded 1-5, vehicle 2.0 ± 0.5
  Inflammation: 1.5 ± 0.5^ns
[4]; histopathology summary, graded 1 to 5, vehicle 2.6 ± 0.5
  Exostosis: 1.4 ± 0.6^ns
[4]; histopathology summary, vehicle 0.5 ± 0.2
  Cartilage Damage: 0.7 ± 0.3^ns
[4]; histopathology summary, vehicle 6.7 ± 1.7
  Composite Score: 6.0 ± 2.1^ns
